{
  "source": "patent US20250034127A1",
  "about": "“AUTOPHAGY INDUCING COMPOUNDS AND USES THEREOF, IN PARTICULAR FOR DISEASES OF THE CNS” (Samsara Therapeutics Inc., priority 2021, published 2025)",
  "test_system": "C57BL/6JRj mice injured by intra-nigral injections of α-syn combined with conduritol B epoxide",
  "assay": "Mouse model of Parkinson's disease (intra-nigral α-syn plus CBE)",
  "format": "in vivo",
  "details": "30 mg/kg per os twice a day",
  "text": "This model (run by Neuro-Sys SAS, France) uses C57BL/6JRj mice injured by intra-nigral injections of a solution containing protofibrils of alpha-synuclein (α-syn, precisely quantified by automatic Western Blot) and combined with pharmacological inhibition of GBA by conduritol B epoxide, in aged mice. The model reproduces essential neuropathological features of PD (e.g. loss of dopaminergic neurons, α-syn aggregation, endoplasmic reticulum [ER] stress) and the neuroinflammatory response (microglia activation and release of proinflammatory cytokines) in the nigra striata area.\nAnimal characteristics: • Type of animal: C57BL/6JRj (Male) • Age: 18 months old • Supplier: Janvier Labs • Animal number: 7 mice per group • Acclimation and clinical signs: Animals arrived on site 7 days (one week) before the experiment to allow optimal acclimation.\n• Test compound dose and administration: 30 mg/kg, per os (gavage or drinking water), twice a day • Test compound treatment: The test compound was solubilized (vehicle=water), aliquoted and stored at −20° C. Aliquots were thawed overnight at 4° C. and given twice a day (morning and afternoon). Treatment started on the day of the stereotaxic injections of α-syn preparation (Day 0). Treatment was administrated until the last day of the experiment (Day 28; =day of dissection). • CBE dose and administration: 50 mg/kg, Intraperitoneal (i.p.), twice a day. • CBE treatment: Administration of CBE (vehicle=saline [NaCl 0.9%] started on the day of the stereotaxic injections of α-syn preparation (Day 0). Treatment was administrated until the last day of the experiment (Day 28; =day of dissection), • Untreated control: vehicle (saline; i.p.) administered twice a day, […]\nFor overall evaluation and body mass, mice were observed daily, and body mass was monitored prior the morning drug administration. […]",
  "key": {"[1]": {"details": "day 28, compared to the α-syn/CBE injured group"}},
  "data": [
    {"compound": "CCN1CCC(N(C)C(=O)c2csc(-c3cnn(-c4ccccc4)c3)n2)CC1", "note": "[Compound 196, N-(1-ethylpiperidin-4-yl)-N-methyl-2-(1-phenyl-1H-pyrazol-4-yl)-1,3-thiazole-4-carboxamide]", "values": [
      {"measurement": "body mass of the animals", "setting": "after 4 weeks of treatment", "result": "did not significantly modify"},
      {"measurement": "decrease in the number of Iba1-positive microglial cells in the SNpc", "setting": "[1]", "result": "> 15", "unit": "%"},
      {"measurement": "increase in the number of dopaminergic TH positive neurons in the SNpc", "setting": "[1]", "result": "> 60", "unit": "%"}
    ]}
  ]
}
